In patent US6689767B2, “Triterpenes having antibacterial activity” (Regents of the University of Minnesota, priority 2000, dated 2004):
≈ marks a conversion by molar mass, not a printed value.

What was measured:
Bacillus subtilis = test: Kirby-Bauer disk diffusion growth inhibition, Bacillus subtilis; format: cell-based; details: 100 μl on 10 mm disk, 18 hours 37° C.; for zone of inhibition at 0.125 µg/mL: Bacillus subtilis, read-out: Zone of inhibition Bacillus subtilis
Method in brief: (§1)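 Bacteria grown 18 h at 37 °C in nutrient broth, 0.5 ml swabbed onto Mueller-Hinton agar; 10 mm disks loaded with 100 μl compound in DMSO or water (additional compounds at 10 mg/ml in DMSO). Inhibition zones measured after 18 h at 37 °C, in triplicate.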

bacteria = test: Summary statements over the antibacterial assays above; format: cell-based; details: summary list
Staphylococcus aureus = test: Kirby-Bauer disk diffusion growth inhibition, Staphylococcus aureus; format: cell-based; details: for Zone of inhibition Staphylococcus aureus / zone of inhibition at 0.125 µg/mL: 100 μl on 10 mm disk, 18 hours 37° C.; for Active against: Table 1 summary, S. aureus; for effectiveness against S. aureus: Tables 1a and 1b; for zone of inhibition at 0.125 µg/mL: Staphylococcus aureus, read-out: Zone of inhibition Staphylococcus aureus
Method in brief: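 S. aureus broth culture (18 h, 37 °C) spread on Mueller-Hinton agar; 10 mm disks carrying 100 μl compound solution in DMSO or water, one set at 10 mg/ml in DMSO. Inhibition zones measured after 18 h at 37 °C, in triplicate.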

Escherichia coli = test: Kirby-Bauer disk diffusion growth inhibition, Escherichia coli; format: cell-based; details: for Zone of inhibition Escherichia coli / zone of inhibition at 0.125 µg/mL: 100 μl on 10 mm disk, 18 hours 37° C.; for zone of inhibition at 0.125 µg/mL: Escherichia coli, read-out: Zone of inhibition Escherichia coli; for Active against: Table 1 summary, E. coli; for effectiveness against E. Coli: Tables 1a and 1b
Method in brief: as §1

S. aureus = test: Minimum inhibitory concentration in tryptic soy broth, S. aureus; format: cell-based, Staphylococcus aureus; details: 24 hours 37° C., turbidity
Protocol: (§2) Sterile tryptic soy broth was prepared according to the manufacturer's instructions (Difco Lab, Michigan). To each tube containing 7 ml of broth, test compounds dissolved in DMSO were added at different concentrations in triplicate. The tubes were incubated for 24 hours at 37° C. and then turbidity was measured using a […]. The colorimeter was calibrated with sterile broth. The MIC was the lowest concentration that could prevent an increase in turbidity.

E. Coli = test: Minimum inhibitory concentration in tryptic soy broth, E. coli; format: cell-based, Escherichia coli; details: 24 hours 37° C., turbidity
Protocol: as §2

[1] = test system: methicillin resistant S. aureus; test: Minimum inhibitory concentration in tryptic soy broth, methicillin resistant S. aureus; format: cell-based, Staphylococcus aureus; details: 24 hours 37° C., turbidity
Protocol: as §2

[2] = test system: methicillin-resistant Staphylococcus aureus; test: Growth inhibition of methicillin-resistant Staphylococcus aureus; format: cell-based
Protocol: The compounds disclosed herein were tested for growth inhibition against four strains of bacteria: Escherichia coli, Staphylococcus aureus, methicillin-resistant Staphylococcus aureus, and Bacillus subtilis. […] They represent […]. E. coli is a gram-negative, non-spore forming, rod-shaped, opportunistic pathogen that resides in the human digestive tract. S. aureus is a gram positive coccus, is usually found morphologically as a […], and is an opportunistic human pathogen, often residing on or in the skin. B. subtilis is a gram positive spore-forming rod. Its native environment is the soil. The chemicals were tested for growth-inhibition of the bacteria by the Kirby-Bauer method. See, e.g., Microbiology, third edition; Lansing M. Prescott, John P. Harley, and Donald A. Klein; Wm. C. Brown Publishers.
Mueller-Hinton agar (Difco Lab, Michigan) was prepared according to the manufacturer's directions, and 20 ml was dispensed in each sterile petri dish. Sterile nutrient broth (Difco Lab, Michigan) was also prepared according to the manufacturer's directions.
Bacteria were grown in liquid nutrient broth for 18 hours at 37° C. until they were turbid.
An aliquot of 0.5 ml of cultured bacteria was aseptically transferred to the surface of a Mueller-Hinton agar plat, and spread using a cotton-tipped swab. […]
The zones of inhibition were measured after 18 hours growth at 37° C. […]

With `C=C(C)[C@@H]1CC[C@]2(COC(=O)c3ccccc3C(=O)O)CC[C@]3(C)[C@H](CC[C@@H]4[C@@]5(C)CC[C@H](OC(=O)c6ccccc6C(=O)O)C(C)(C)[C@@H]5CC[C@]43C)[C@@H]12` [Betulin 3,28-diphthalate, Betulin-3,28-diphthalate] the “Zone of inhibition Bacillus subtilis” value (Bacillus subtilis; 10 mg/ml in DMSO) was 0 mm, the “active against at least one strain of bacteria in the assays above” value (shortened to “active against at least one strain”) (bacteria) was “active against at least one strain of bacteria” and the “Zone of inhibition Staphylococcus aureus” value (Staphylococcus aureus; 10 mg/ml in DMSO) was 10.0 mm. The “sensitivity of S. aureus” value (Staphylococcus aureus; Example 34, 10 mg/ml in DMSO) was “sensitive”, the Active against (Staphylococcus aureus) was “S. aureus” and the “effectiveness against S. aureus” value (Staphylococcus aureus) was “effective”. For the same compound, the “Zone of inhibition Escherichia coli” value (Escherichia coli; 10 mg/ml in DMSO) was 0 mm and the minimum inhibitory concentration (S. aureus) was 2.3 µM (≈ 1.7 µg/mL).
Compound `CC1(C)CCC23CC[C@@]4(C)C(CCC5[C@@]6(C)C=C(O)C(=O)C(C)(C)C6CC[C@]54C)C2C1OC3=O` (stereo partly drawn) [Allobetulon-lactone-1-ene-2-ol, allobetulon lactone-1-ene-2-ol] has a zone of inhibition at 0.125 µg/mL (Bacillus subtilis; 125 ng/ml in water) of 0 mm, a zone of inhibition at 0.125 µg/mL (Staphylococcus aureus; 125 ng/ml in water) of 0 mm and a zone of inhibition at 0.125 µg/mL (Escherichia coli; 125 ng/ml in water) of 0 mm. It also gave a melting point of 238.8 to 243.6 °C.
With `C=C(C)[C@@H]1CC[C@]2(COC(=O)CCCC(=O)O)CC[C@]3(C)[C@H](CC[C@@H]4[C@@]5(C)CC[C@H](OC(=O)CCCC(=O)O)C(C)(C)[C@@H]5CC[C@]43C)[C@@H]12` [Betulin 3,28-diglutarate, Betulin-3,28-diglutarate] the “Zone of inhibition Bacillus subtilis” value (Bacillus subtilis; 125 ng/ml in water) was 0 mm, the “Zone of inhibition Bacillus subtilis” value (Bacillus subtilis; 10 mg/ml in DMSO) was 0 mm and the “active against at least one strain” value (bacteria) was “active against at least one strain of bacteria”. For the same compound, the MIC (E. Coli) was 0.282 µM (≈ 0.189 µg/mL), the “Zone of inhibition Staphylococcus aureus” value (Staphylococcus aureus; 125 ng/ml in water) was 0 mm and the “Zone of inhibition Staphylococcus aureus” value (Staphylococcus aureus; 10 mg/ml in DMSO) was 0 mm. The “Zone of inhibition Escherichia coli” value (Escherichia coli; 125 ng/ml in water) was 12.0 mm, the “Zone of inhibition Escherichia coli” value (Escherichia coli; 10 mg/ml in DMSO) was 0 mm and the Active against (Escherichia coli) was “E. coli”. For the same compound, the “effectiveness against E. Coli” value (Escherichia coli) was “effective”.
For `C=C(C)[C@@H]1CC[C@]2(COC(=O)COCC(=O)O)CC[C@]3(C)[C@H](CC[C@@H]4[C@@]5(C)CC[C@H](OC(=O)COCC(=O)O)C(C)(C)[C@@H]5CC[C@]43C)[C@@H]12` [Betulin 3,28-didiglycolate, Betulin-3,28-didiglycolate], the “Zone of inhibition Bacillus subtilis” value (Bacillus subtilis; 10 mg/ml in DMSO) was 0 mm, the “active against at least one strain” value (bacteria) was “active against at least one strain of bacteria” and the MIC (E. Coli) was 0.282 µM (≈ 0.19 µg/mL). For the same compound, the “Zone of inhibition Staphylococcus aureus” value (Staphylococcus aureus; 10 mg/ml in DMSO) was 0 mm, the “Zone of inhibition Escherichia coli” value (Escherichia coli; 10 mg/ml in DMSO) was 0 mm and the Active against (Escherichia coli) was “E. coli”. The “effectiveness against E. Coli” value (Escherichia coli) was “effective”.
With `C=C(C)[C@@H]1CC[C@]2(COC(=O)/C=C\C(=O)O)CC[C@]3(C)[C@H](CC[C@@H]4[C@@]5(C)CC[C@H](OC(=O)/C=C\C(=O)O)C(C)(C)[C@@H]5CC[C@]43C)[C@@H]12` [Betulin 3,28-dimaleate, Betulin-3,28-dimaleate] the MIC [1] was 0.282 µM (≈ 0.18 µg/mL), the “Zone of inhibition Bacillus subtilis” value (Bacillus subtilis; 10 mg/ml in DMSO) was 0 mm and the “effectiveness against methicillin resistant S. aureus” value [2] was “effective”. The Active against ([2]; Table 1 summary, S. aureus methicillin resistant) was “S. aureus methicillin”, the “Zone of inhibition Staphylococcus aureus” value (Staphylococcus aureus; 10 mg/ml in DMSO) was 11.0 mm and the Active against (Staphylococcus aureus) was “S. aureus,”. For the same compound, the “effectiveness against S. aureus” value (Staphylococcus aureus) was “effective”, the “amount applied to the disk that inhibited S. aureus” value (Staphylococcus aureus; disk diffusion assay, laboratory strain (not methicillin resistant)) was 56 ng and the “effectiveness against S. aureus compared with streptomycin” value (Staphylococcus aureus; laboratory strain (not methicillin resistant)) was “more effective”. The “Zone of inhibition Escherichia coli” value (Escherichia coli; 10 mg/ml in DMSO) was 0 mm and the minimum inhibitory concentration (S. aureus) was 2.3 µM (≈ 1.47 µg/mL).
For `C=C(C)[C@@H]1CCC2(CO)CC[C@@]3(C)C(CCC4[C@@]5(C)C=C(O)C(=O)C(C)(C)C5CC[C@]43C)C12` (stereo partly drawn) [Betulon-1,2-ene-ol, betulon-1-ene-2-ol], the zone of inhibition at 0.125 µg/mL (Bacillus subtilis; 125 ng/ml in water) was 0 mm, the zone of inhibition at 0.125 µg/mL (Staphylococcus aureus; 125 ng/ml in water) was 0 mm and the zone of inhibition at 0.125 µg/mL (Escherichia coli; 125 ng/ml in water) was 0 mm. For the same compound, the melting point was 167 to 170 °C (dec.).
With `C=C(C)C1CCC2(COP(=O)(O)O)CC[C@@]3(C)C(CCC4[C@@]5(C)CCC(OP(=O)(O)O)C(C)(C)C5CC[C@]43C)C12` (stereo partly drawn) [Betulin 3,28-diphosphate, Betulin-3,28-diphosphate] the zone of inhibition at 0.125 µg/mL (Bacillus subtilis; 125 ng/ml in water) was 0 mm, the “active against at least one strain” value (bacteria) was “active against at least one strain of bacteria” and the MIC (E. Coli; Escherichia coli) was 0.282 µM (≈ 0.17 µg/mL). The zone of inhibition at 0.125 µg/mL (Staphylococcus aureus; 125 ng/ml in water) was 0 mm, the zone of inhibition at 0.125 µg/mL (Escherichia coli; 125 ng/ml in water) was 11 mm and the Active against (Escherichia coli) was “E. coli”. For the same compound, the “effectiveness against E. Coli” value (Escherichia coli) was “effective”.
